ChEMBL document CHEMBL4330111 (Bioorg Med Chem Lett, 2019)

Columns and labels:
[1] = tested on: Mycobacterium tuberculosis; assay: microbe, parasite or virus in culture; conditions: H37Rv, 144 h
Description: Antitubercular activity against Mycobacterium tuberculosis H37Rv after 6 days by alamar blue reagent based assay

[2] = tested on: Vero; assay: Cytotoxicity against African green monkey Vero cells after 48 hrs by MTT assay; type: cell-based; conditions: chlorocebus sabaeus
[3] = Cmax in CD-1 mouse at 25 mg/kg, po administered as single dose by LC-MS/MS analysis; type: ADME, organism-based; parameters: dose 25 mg/kg, route oral; conditions: in vivo
[4] = tested on: Acinetobacter baumannii; assay: Antibacterial activity against Acinetobacter baumannii ATCC 19606; type: functional; conditions: ATCC 19606 = CIP 70.34 = JCM 6841
[5] = tested on: Staphylococcus aureus; assay: Antibacterial activity against Staphylococcus aureus ATCC 43300; type: functional
[6] = AUC (0 to 5 hrs) in CD-1 mouse at 25 mg/kg, po administered as single dose by LC-MS/MS analysis; type: ADME, organism-based; parameters: dose 25 mg/kg, route oral; conditions: in vivo
[7] = tested on: Pseudomonas aeruginosa; assay: Antibacterial activity against Pseudomonas aeruginosa HER1018; type: functional
[8] = tested on: Enterococcus faecium; assay: Antibacterial activity against Enterococcus faecium NCTC 7171; type: functional
[9] = Intrinsic clearance in mouse liver microsomes assessed per mg protein; type: ADME, Microsome
[10] = Half life in mouse liver microsomes; type: ADME, Microsome
[11] = Kinetic solubility of the compound in pH 7.4 phosphate buffered saline; type: physicochemical; conditions: for solubility kinetic: phosphate buffered saline, read-out: Kinetic_solubility; for Kinetic_solubility: buffer
[12] = Antibacterial activity against Enterobacter cloacae ATCC 13047; type: functional, Enterobacter cloacae subsp. cloacae
[13] = tested on: Klebsiella pneumoniae; assay: Antibacterial activity against Klebsiella pneumoniae BAA 2146; type: functional; conditions: ATCC BAA-2146
[14] = Ratio of drug level in CD-1 mouse lungs to plasma at 25 mg/kg, po administered as single dose measured after 5 hrs by LC-MS/MS analysis; type: ADME, organism-based; conditions: lung/plasma

## O=C(NCc1ccccc1Cl)c1ccc([N+](=O)[O-])o1
[1]
  MIC: 6.2 µM
[2]
  CC50: 11 µM

## O=C(NCc1ccccc1)c1ccc([N+](=O)[O-])o1
[3]; CD-1, mouse, read-out: Cmax
  Cmax: 1160 nM
[4]
  MIC: > 200 µM
[1]
  MIC: 0.39 µM
[5]
  MIC: > 200 µM
[6]
  AUC: 547 ng·h/mL
[7]
  MIC: > 200 µM
[8]
  MIC: > 200 µM
[9]
  Intrinsic clearance: 24.3 µL/min
[10]
  t1/2: 28.5 min
[2]
  CC50: 13 µM
[11]
  solubility kinetic: > 500 µM
[12]
  MIC: > 200 µM
[13]
  MIC: > 200 µM

## O=C(Nc1ccc(Cl)cc1)c1ccc([N+](=O)[O-])o1
[1]
  MIC: 0.78 µM
[2]
  CC50: 1.5 µM

## O=C(Nc1ccccc1)c1ccc([N+](=O)[O-])o1
[1]
  MIC: 3.1 µM
[2]
  CC50: 6.7 µM

## O=C(NCCc1ccccc1)c1ccc([N+](=O)[O-])o1
[1]
  MIC: 3.1 µM
[2]
  CC50: 12 µM

## CC(NC(=O)c1ccc([N+](=O)[O-])o1)c1ccccc1 (stereo unspecified)
[1]
  MIC: 6.2 µM
[2]
  CC50: 24 µM

## CC(C)(NC(=O)c1ccc([N+](=O)[O-])o1)c1ccccc1
[3]; CD-1, mouse, read-out: Cmax
  Cmax: 1620 nM
[1]
  MIC: 0.78 µM
[6]
  AUC: 717 ng·h/mL
[9]
  Intrinsic clearance: 9.3 µL/min
[10]
  t1/2: 74.5 min
[11]
  Kinetic_solubility: 388 µM

## O=C(NC(=O)c1ccc([N+](=O)[O-])o1)c1ccccc1
[1]
  MIC: 25 µM
[2]
  CC50: 3 µM

## O=C(Nc1cc2ccccc2o1)c1ccc([N+](=O)[O-])o1
[1]
  MIC: 0.2 µM
[2]
  CC50: 40 µM

## CC(C)(NC(=O)c1ccc([N+](=O)[O-])o1)c1ccc(Oc2ccc(Cl)cc2)cc1
[1]
  MIC: 0.39 µM
[2]
  CC50: 67 µM

## CC(C)(C)C(NC(=O)c1ccc([N+](=O)[O-])o1)c1ccccc1 (stereo unspecified)
[1]
  MIC: 25 µM
[2]
  CC50: 10 µM

## O=C(NCc1ccc(Oc2ccc(Cl)cc2)cc1)c1ccc([N+](=O)[O-])o1
[1]
  MIC: 0.062 µM

## O=C(NCCCc1ccc(Cl)cc1)c1ccc([N+](=O)[O-])o1
[1]
  MIC: 0.39 µM
[2]
  CC50: 19 µM

## O=C(NCc1cccc(Cl)c1)c1ccc([N+](=O)[O-])o1
[1]
  MIC: 0.78 µM
[2]
  CC50: 5.5 µM

## CC(C)(NC(=O)c1ccc([N+](=O)[O-])o1)c1ccc(COc2ccccc2OC(F)(F)F)cc1
[1]
  MIC: 0.098 µM
[2]
  CC50: 13 µM

## CC(C)(NC(=O)c1ccc([N+](=O)[O-])o1)c1ccc(COc2ccc(C(F)(F)F)cc2)cc1
[1]
  MIC: 0.39 µM
[2]
  CC50: 7 µM

## CC(C)C(NC(=O)c1ccc([N+](=O)[O-])o1)c1ccccc1 (stereo unspecified)
[1]
  MIC: 6.2 µM
[2]
  CC50: 22 µM

## COc1ccc(OCc2ccc(C(C)(C)NC(=O)c3ccc([N+](=O)[O-])o3)cc2)cc1
[3]; mouse
  Cmax: 5 ng/mL
[4]
  MIC: > 120 µM
[1]
  MIC: 0.078 µM
[5]
  MIC: > 120 µM
[6]
  AUC: 11 ng·h/mL
[7]
  MIC: > 120 µM
[8]
  MIC: > 120 µM
[9]
  Intrinsic clearance: 15.4 µL/min
[10]
  t1/2: 45 min
[2]
  CC50: > 120 µM
[11]
  solubility kinetic: < 0.06 µM
[12]
  MIC: > 120 µM
[13]
  MIC: > 120 µM

## COc1ccccc1OCc1ccc(C(C)(C)NC(=O)c2ccc([N+](=O)[O-])o2)cc1
[3]; CD-1, mouse, read-out: Cmax
  Cmax: 210 nM
[4]
  MIC: > 120 µM
[1]
  MIC: 0.019 µM
[5]
  MIC: > 120 µM
[6]
  AUC: 210 ng·h/mL
[7]
  MIC: > 120 µM
[8]
  MIC: > 120 µM
[9]
  Intrinsic clearance: 59.8 µL/min
[10]
  t1/2: 11.6 min
[14]
  Kp at 5 h: 0.04 to 0.09
[11]
  Kinetic_solubility: 0.182 µM
[12]
  MIC: > 120 µM
[13]
  MIC: > 120 µM

## CC(C)(NC(=O)c1ccc([N+](=O)[O-])o1)c1ccc(C#N)cc1
[1]
  MIC: > 10 µM
[2]
  CC50: 83 µM

## CC(C)(NC(=O)c1ccc([N+](=O)[O-])o1)c1ccc(F)cc1
[1]
  MIC: 0.78 µM
[2]
  CC50: 42 µM

## CC(C)(NC(=O)c1ccc([N+](=O)[O-])o1)c1ccc(C(F)(F)F)cc1
[1]
  MIC: 0.78 µM
[2]
  CC50: > 150 µM

## CC(C)(NC(=O)c1ccc([N+](=O)[O-])o1)c1ccc(COc2ccc(OC(F)(F)F)cc2)cc1
[1]
  MIC: 0.39 µM
[2]
  CC50: 6.7 µM

## CC(C)(NC(=O)c1ccc([N+](=O)[O-])o1)c1ccc(Cl)cc1
[1]
  MIC: 0.15 µM

## COc1ccc(C(C)(C)NC(=O)c2ccc([N+](=O)[O-])o2)cc1
[1]
  MIC: 0.078 µM

## O=C(NCCCc1ccccc1)c1ccc([N+](=O)[O-])o1
[1]
  MIC: 0.78 µM
[2]
  CC50: 11 µM

## CC(C)(NC(=O)c1ccc([N+](=O)[O-])o1)c1ccc(COc2ccc(Cl)cc2)cc1
[3]; CD-1, mouse, read-out: Cmax
  Cmax: 22 nM
[1]
  MIC: 0.12 µM
[6]
  AUC: 34 ng·h/mL

## CN(C)c1ccc(C(C)(C)NC(=O)c2ccc([N+](=O)[O-])o2)cc1
[1]
  MIC: 0.2 µM
[2]
  CC50: 79 µM

## O=C(NCc1ccc(Cl)cc1)c1ccc([N+](=O)[O-])o1
[1]
  MIC: 0.098 µM

## CC(C)(NC(=O)c1ccc([N+](=O)[O-])o1)c1ccc(OC(F)(F)F)cc1
[1]
  MIC: 0.2 µM
[2]
  CC50: 70 µM

## O=C(Nc1cc2ccccc2s1)c1ccc([N+](=O)[O-])o1
[1]
  MIC: 0.078 µM
[9]
  Intrinsic clearance: 371 µL/min
[10]
  t1/2: 1.87 min
[2]
  CC50: 38 µM
[11]
  Kinetic_solubility: 5.61 µM

## CC(C)(NC(=O)c1ccc([N+](=O)[O-])o1)c1ccc(CN2CCOCC2)cc1
[1]
  MIC: > 10 µM
[2]
  CC50: 130 µM

## O=C(NCCc1ccc(Cl)cc1)c1ccc([N+](=O)[O-])o1
[1]
  MIC: 0.39 µM
[2]
  CC50: 5.4 µM

## O=C(NC1(c2ccccc2)CC1)c1ccc([N+](=O)[O-])o1
[1]
  MIC: 6.2 µM
[2]
  CC50: 46 µM

## O=C(Nc1ccc2ccccc2c1)c1ccc([N+](=O)[O-])o1
[1]
  MIC: 0.0078 µM
[9]
  Intrinsic clearance: 325 µL/min
[10]
  t1/2: 2.13 min
[2]
  CC50: > 150 µM
[11]
  Kinetic_solubility: 1.5 µM

## O=C(NCc1ccc(COc2ccc(Cl)cc2)cc1)c1ccc([N+](=O)[O-])o1
[1]
  MIC: 0.039 µM

## O=C(NC(c1ccccc1)C1CC1)c1ccc([N+](=O)[O-])o1 (stereo unspecified)
[1]
  MIC: 12 µM
[2]
  CC50: 22 µM

## O=C(NCc1ccc(CN2CCOCC2)cc1)c1ccc([N+](=O)[O-])o1
[1]
  MIC: 1.2 µM
[2]
  CC50: 18 µM

## CC(C)(NC(=O)c1ccc([N+](=O)[O-])o1)c1ccc(-c2ccc(Cl)cc2)cc1
[1]
  MIC: 25 µM
[2]
  CC50: > 140 µM

## CC(C)(NC(=O)c1ccc([N+](=O)[O-])o1)c1ccc(COc2ccccc2C(F)(F)F)cc1
[1]
  MIC: 0.31 µM
[2]
  CC50: 14 µM

## O=C(NCc1ccc(-c2ccc(Cl)cc2)cc1)c1ccc([N+](=O)[O-])o1
[1]
  MIC: 0.12 µM
[2]
  CC50: 4.4 µM

## CC(C)(C)c1ccc(C(C)(C)NC(=O)c2ccc([N+](=O)[O-])o2)cc1
[1]
  MIC: 0.39 µM
[2]
  CC50: > 150 µM

## CC(C)(NC(=O)c1ccc([N+](=O)[O-])o1)c1ccc(COc2ccccc2Cl)cc1
[1]
  MIC: 0.31 µM
[2]
  CC50: 30 µM

## CO[C@H]1/C=C/O[C@@]2(C)Oc3c(C)c(O)c4c(O)c(c(/C=N/N5CCN(C)CC5)c(O)c4c3C2=O)NC(=O)/C(C)=C\C=C\[C@H](C)[C@H](O)[C@@H](C)[C@@H](O)[C@@H](C)[C@H](OC(C)=O)[C@@H]1C [RIFAMPIN]
[1]
  MIC: 0.0125 to 0.05 µg/mL
